Reference: the supplement of paper PMC4862054

Experiments:
Conditions in all cases: incubation time: 72 h
CAL-51 = test: drug sensitivity score (DSS), CellTiter-Blue viability (DSS (AUC-based score)); higher = stronger viability inhibition; extreme values may be limits of the assay
Protocol: (§1)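 DSRT with the CellTiter-Blue (resazurin reduction) viability readout, fluorescence 560/590 nm, 72 h incubation. Plates were normalised to DMSO and benzethonium chloride controls. DSS is computed from the area under the fitted dose-response curve (5 or 9 concentrations).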

CAL-120 = test: as above
Protocol: as §1

HCC1599 [1] = test: as above
Protocol: as §1

DU-4475 [2] = test: as above
Protocol: as §1

MDA-MB-453 = test: as above
Protocol: as §1

MDA-MB-231 = test: as above
Protocol: as §1

CAL-148 [3] = test: as above
Protocol: as §1

MDA-MB-468 [4] = test: as above
Protocol: as §1

HDQ-P1 = test: as above
Protocol: as §1

CAL-85-1 = test: as above
Protocol: as §1

BT-474 = test: as above
Protocol: as §1

HCC1937 [5] = test: as above
Protocol: as §1

MFM-223 [6] = test: as above
Protocol: as §1

SK-BR-3 [7] = test: as above
Protocol: as §1

BT-549 [8] = test: as above
Protocol: as §1

Hs578T = test: as above
Protocol: as §1

MDA-MB-436 [9] = test: as above
Protocol: as §1

HCC1143 [10] = test: as above
Protocol: as §1

HCC1599 [11] = test: normalised viability (% of control), CellTiter-Blue; higher = more viable cells (about 100 = DMSO control)
Protocol: (§2)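 DSRT, CellTiter-Blue viability, 72 h incubation. Signal is normalised to DMSO and benzethonium chloride controls. Value is the normalised response at dose 3.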

DU-4475 [12] = test: as above
Protocol: as §2

CAL-148 [13] = test: as above
Protocol: as §2

MDA-MB-468 [14] = test: as above
Protocol: as §2

HCC1937 [15] = test: as above
Protocol: as §2

MFM-223 [16] = test: as above
Protocol: as §2

SK-BR-3 [17] = test: as above
Protocol: as §2

BT-549 [18] = test: as above
Protocol: as §2

MDA-MB-436 [19] = test: as above
Protocol: as §2

HCC1143 [20] = test: as above
Protocol: as §2

C[C@@]1(C(=O)Nc2ccc(F)nc2)CCCN1c1nc(Nc2cc(C3CC3)n[nH]2)c2cccn2n1
drug sensitivity score (CAL-51): 9.17
drug sensitivity score (CAL-120): 8.33
drug sensitivity score (HCC1599 [1]): 11.5
drug sensitivity score (DU-4475 [2]): 9.27
drug sensitivity score (MDA-MB-453): 5.98
drug sensitivity score (MDA-MB-231): 11
drug sensitivity score (CAL-148 [3]): 6.09
drug sensitivity score (MDA-MB-468 [4]): 7.88
drug sensitivity score (HDQ-P1): 16
drug sensitivity score (CAL-85-1): 10.6
drug sensitivity score (BT-474): 0
drug sensitivity score (HCC1937 [5]): 6.32
drug sensitivity score (MFM-223 [6]): 10.1
drug sensitivity score (SK-BR-3 [7]): 5.88
drug sensitivity score (BT-549 [8]): 6.82
drug sensitivity score (Hs578T): 5.68
drug sensitivity score (MDA-MB-436 [9]): 2.82
drug sensitivity score (HCC1143 [10]): 9.58
normalised viability (HCC1599 [11]; 100 nM): 73.3%
normalised viability (DU-4475 [12]; 10 nM): 90.4%
normalised viability (CAL-148 [13]; 10 nM): 94%
normalised viability (MDA-MB-468 [14]; 100 nM): 101%
normalised viability (HCC1937 [15]; 100 nM): 88.3%
normalised viability (MFM-223 [16]; 100 nM): 88.2%
normalised viability (SK-BR-3 [17]; 100 nM): 92.6%
normalised viability (BT-549 [18]; 100 nM): 109%
normalised viability (MDA-MB-436 [19]; 100 nM): 92.6%
normalised viability (HCC1143 [20]; 100 nM): 72.8%

COc1cccc2c1C(=O)c1c(O)c3c(c(O)c1C2=O)C[C@@](O)(C(C)=O)C[C@@H]3O[C@H]1C[C@H](N)[C@H](O)[C@H](C)O1 [Daunorubicin]
drug sensitivity score (CAL-51): 13.7
drug sensitivity score (CAL-120): 13.1
drug sensitivity score (HCC1599 [1]): 1.88
drug sensitivity score (DU-4475 [2]): 14
drug sensitivity score (MDA-MB-453): 3.7
drug sensitivity score (MDA-MB-231): 13.5
drug sensitivity score (CAL-148 [3]): 13
drug sensitivity score (MDA-MB-468 [4]): 11.1
drug sensitivity score (HDQ-P1): 5.31
drug sensitivity score (CAL-85-1): 5.47
drug sensitivity score (BT-474): 7.7
drug sensitivity score (HCC1937 [5]): 14.9
drug sensitivity score (MFM-223 [6]): 2.14
drug sensitivity score (SK-BR-3 [7]): 13.1
drug sensitivity score (BT-549 [8]): 9.47
drug sensitivity score (Hs578T): 9.16
drug sensitivity score (MDA-MB-436 [9]): 10.8
drug sensitivity score (HCC1143 [10]): 10.9
normalised viability (HCC1599 [11]; 10 nM): 104%
normalised viability (DU-4475 [12]; 1 nM): 95.8%
normalised viability (CAL-148 [13]; 1 nM): 103%
normalised viability (MDA-MB-468 [14]; 10 nM): 99.8%
normalised viability (HCC1937 [15]; 10 nM): 77.9%
normalised viability (MFM-223 [16]; 10 nM): 90.9%
normalised viability (SK-BR-3 [17]; 10 nM): 87.3%
normalised viability (BT-549 [18]; 10 nM): 95.1%
normalised viability (MDA-MB-436 [19]; 10 nM): 92.1%
normalised viability (HCC1143 [20]; 10 nM): 79.2%

COc1ccc(C2=N[C@@H](c3ccc(Cl)cc3)[C@@H](c3ccc(Cl)cc3)N2C(=O)N2CCNC(=O)C2)c(OC(C)C)c1 [Nutlin-3]
drug sensitivity score (CAL-51): 2.91
drug sensitivity score (CAL-120): 0
drug sensitivity score (HCC1599 [1]): 0
drug sensitivity score (DU-4475 [2]): 3.53
drug sensitivity score (MDA-MB-453): 0
drug sensitivity score (MDA-MB-231): 0
drug sensitivity score (CAL-148 [3]): 0
drug sensitivity score (MDA-MB-468 [4]): 0
drug sensitivity score (HDQ-P1): 0
drug sensitivity score (CAL-85-1): 0
drug sensitivity score (BT-474): 0
drug sensitivity score (HCC1937 [5]): 0
drug sensitivity score (MFM-223 [6]): 0
drug sensitivity score (SK-BR-3 [7]): 0
drug sensitivity score (BT-549 [8]): 0
drug sensitivity score (Hs578T): 0
drug sensitivity score (MDA-MB-436 [9]): 0
drug sensitivity score (HCC1143 [10]): 0
normalised viability (HCC1599 [11]; 100 nM): 118%
normalised viability (DU-4475 [12]; 10 nM): 95.4%
normalised viability (CAL-148 [13]; 10 nM): 95.6%
normalised viability (MDA-MB-468 [14]; 100 nM): 95.8%
normalised viability (HCC1937 [15]; 100 nM): 106%
normalised viability (MFM-223 [16]; 100 nM): 83.2%
normalised viability (SK-BR-3 [17]; 100 nM): 72.8%
normalised viability (BT-549 [18]; 100 nM): 105%
normalised viability (MDA-MB-436 [19]; 100 nM): 97.9%
normalised viability (HCC1143 [20]; 100 nM): 84%

O=c1[nH]c(=O)n([C@H]2C[C@H](O)[C@@H](CO)O2)cc1F [Floxuridine]
drug sensitivity score (CAL-51): 21.3
drug sensitivity score (CAL-120): 19.1
drug sensitivity score (HCC1599 [1]): 0.768
drug sensitivity score (DU-4475 [2]): 0
drug sensitivity score (MDA-MB-453): 4.36
drug sensitivity score (MDA-MB-231): 8.09
drug sensitivity score (CAL-148 [3]): 18.3
drug sensitivity score (MDA-MB-468 [4]): 17.8
drug sensitivity score (HDQ-P1): 0
drug sensitivity score (CAL-85-1): 14
drug sensitivity score (BT-474): 0
drug sensitivity score (HCC1937 [5]): 3.61
drug sensitivity score (MFM-223 [6]): 0
drug sensitivity score (SK-BR-3 [7]): 17.9
drug sensitivity score (BT-549 [8]): 6.97
drug sensitivity score (Hs578T): 9.02
drug sensitivity score (MDA-MB-436 [9]): 10.6
drug sensitivity score (HCC1143 [10]): 3.31
normalised viability (HCC1599 [11]; 100 nM): 97.2%
normalised viability (DU-4475 [12]; 10 nM): 114%
normalised viability (CAL-148 [13]; 10 nM): 99.8%
normalised viability (MDA-MB-468 [14]; 100 nM): 51.9%
normalised viability (HCC1937 [15]; 100 nM): 84.5%
normalised viability (MFM-223 [16]; 100 nM): 92.6%
normalised viability (SK-BR-3 [17]; 100 nM): 53%
normalised viability (BT-549 [18]; 100 nM): 93.4%
normalised viability (MDA-MB-436 [19]; 100 nM): 72.6%
normalised viability (HCC1143 [20]; 100 nM): 101%

CC(=O)O[C@H]1C(=O)[C@@]2(C)[C@H]([C@H](OC(=O)c3ccccc3)[C@]3(O)C[C@H](OC(=O)[C@H](O)[C@@H](NC(=O)c4ccccc4)c4ccccc4)C(C)=C1C3(C)C)[C@]1(OC(C)=O)CO[C@@H]1C[C@@H]2O [Paclitaxel]
drug sensitivity score (CAL-51): 19.3
drug sensitivity score (CAL-120): 22.2
drug sensitivity score (HCC1599 [1]): 3.04
drug sensitivity score (DU-4475 [2]): 18.3
drug sensitivity score (MDA-MB-453): 22.2
drug sensitivity score (MDA-MB-231): 21.4
drug sensitivity score (CAL-148 [3]): 21.9
drug sensitivity score (MDA-MB-468 [4]): 16.4
drug sensitivity score (HDQ-P1): 20.9
drug sensitivity score (CAL-85-1): 18.3
drug sensitivity score (BT-474): 19
drug sensitivity score (HCC1937 [5]): 22.9
drug sensitivity score (MFM-223 [6]): 15
drug sensitivity score (SK-BR-3 [7]): 26.6
drug sensitivity score (BT-549 [8]): 24.7
drug sensitivity score (Hs578T): 24.4
drug sensitivity score (MDA-MB-436 [9]): 15.8
drug sensitivity score (HCC1143 [10]): 17.6
normalised viability (HCC1599 [11]; 10 nM): 104%
normalised viability (DU-4475 [12]; 1 nM): 97.6%
normalised viability (CAL-148 [13]; 1 nM): 103%
normalised viability (MDA-MB-468 [14]; 10 nM): 52.1%
normalised viability (HCC1937 [15]; 10 nM): 36.4%
normalised viability (MFM-223 [16]; 10 nM): 55.8%
normalised viability (SK-BR-3 [17]; 10 nM): 25.9%
normalised viability (BT-549 [18]; 10 nM): 31.9%
normalised viability (MDA-MB-436 [19]; 10 nM): 52.2%
normalised viability (HCC1143 [20]; 10 nM): 54.6%

CCS(=O)(=O)c1cccc(-c2cc(C(=O)NC3CCN(C)CC3)c(C)c3[nH]c4ncc(C)cc4c23)c1 [TAK-901]
drug sensitivity score (CAL-51): 8.9
drug sensitivity score (CAL-120): 10
drug sensitivity score (HCC1599 [1]): 4.14
drug sensitivity score (DU-4475 [2]): 3.52
drug sensitivity score (MDA-MB-453): 10.7
drug sensitivity score (MDA-MB-231): 9
drug sensitivity score (CAL-148 [3]): 0
drug sensitivity score (MDA-MB-468 [4]): 0.762
drug sensitivity score (HDQ-P1): 5.84
drug sensitivity score (CAL-85-1): 5.05
drug sensitivity score (BT-474): 0
drug sensitivity score (HCC1937 [5]): 6.44
drug sensitivity score (MFM-223 [6]): 10.3
drug sensitivity score (SK-BR-3 [7]): 0
drug sensitivity score (BT-549 [8]): 8.46
drug sensitivity score (Hs578T): 6.31
drug sensitivity score (MDA-MB-436 [9]): 1.92
drug sensitivity score (HCC1143 [10]): 8.44
normalised viability (HCC1599 [11]; 10 nM): 103%
normalised viability (DU-4475 [12]; 1 nM): 97%
normalised viability (CAL-148 [13]; 1 nM): 113%
normalised viability (MDA-MB-468 [14]; 10 nM): 105%
normalised viability (HCC1937 [15]; 10 nM): 120%
normalised viability (MFM-223 [16]; 10 nM): 81.8%
normalised viability (SK-BR-3 [17]; 10 nM): 97.3%
normalised viability (BT-549 [18]; 10 nM): 114%
normalised viability (MDA-MB-436 [19]; 10 nM): 101%
normalised viability (HCC1143 [20]; 10 nM): 87.6%
